Test system: Pseudomonas aeruginosa PAM1001
Assay: microbe, parasite or virus in culture
Type: cell-based
Procedure, shortened: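 Checkerboard broth microdilution (NCCLS) with the efflux pump inhibitor and levofloxacin, each diluted along one axis of the plate, in Mueller Hinton Broth. Inoculum 5×10^5 CFU/ml from early-log culture; incubation 20 h at 35° C. Growth read at 650 nm and visually.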

D-Ornithyl-β-[N-(ethylthioethyl)]alanine 2-naphthylamide [Compound 42 (Table 3)]
Levofloxacin MIC Against P. aeruginosa PAM1001 in Presence of Efflux Pump Inhibitor (EPI), Minimum Inhibitory Concentration (Table 1, EPI Conc. 0 μg/ml): 4 µg/mL
Levofloxacin MIC Against P. aeruginosa PAM1001 in Presence of Efflux Pump Inhibitor (EPI), Minimum Inhibitory Concentration (Table 1, EPI Conc. 0.625 μg/ml): 4 µg/mL
Levofloxacin MIC Against P. aeruginosa PAM1001 in Presence of Efflux Pump Inhibitor (EPI), Minimum Inhibitory Concentration (Table 1, EPI Conc. 5 μg/ml): 4 µg/mL
Levofloxacin MIC Against P. aeruginosa PAM1001 in Presence of Efflux Pump Inhibitor (EPI), Minimum Inhibitory Concentration (Table 1, EPI Conc. 10 μg/ml): 1 µg/mL
Levofloxacin MIC Against P. aeruginosa PAM1001 in Presence of Efflux Pump Inhibitor (EPI), Minimum Inhibitory Concentration (Table 1, EPI Conc. 40 μg/ml): 0.008 µg/mL
Levofloxacin MIC Against P. aeruginosa PAM1001 in Presence of Efflux Pump Inhibitor (EPI), Minimum Inhibitory Concentration (Table 1, EPI Conc. […]): 4 µg/mL
Levofloxacin MIC Against P. aeruginosa PAM1001 in Presence of Efflux Pump Inhibitor (EPI), Minimum Inhibitory Concentration (Table 1, EPI Conc. μg/ml (number not given; column between 10 and 40 μg/ml)): 0.06 µg/mL
Levofloxacin MIC Against P. aeruginosa PAM1001 in Presence of Efflux Pump Inhibitor (EPI), Minimum Inhibitory Concentration (Table 2, EPI Conc. 0 μg/ml): 4 µg/mL
Levofloxacin MIC Against P. aeruginosa PAM1001 in Presence of Efflux Pump Inhibitor (EPI), Minimum Inhibitory Concentration (Table 2, EPI Conc. 0.625 μg/ml): 4 µg/mL
Levofloxacin MIC Against P. aeruginosa PAM1001 in Presence of Efflux Pump Inhibitor (EPI), Minimum Inhibitory Concentration (Table 2, EPI Conc. 5 μg/ml): 0.25 µg/mL
Levofloxacin MIC Against P. aeruginosa PAM1001 in Presence of Efflux Pump Inhibitor (EPI), Minimum Inhibitory Concentration (Table 2, EPI Conc. 10 μg/ml): 0.03 µg/mL
Levofloxacin MIC Against P. aeruginosa PAM1001 in Presence of Efflux Pump Inhibitor (EPI), Minimum Inhibitory Concentration (Table 2, EPI Conc. 40 μg/ml): 0.06 µg/mL
Levofloxacin MIC Against P. aeruginosa PAM1001 in Presence of Efflux Pump Inhibitor (EPI), Minimum Inhibitory Concentration (Table 2, EPI Conc. μg/ml (number not given; column between 10 and 40 μg/ml)): 0.03 µg/mL
Levofloxacin MIC Against P. aeruginosa PAM1001 in Presence of Efflux Pump Inhibitor (EPI), Minimum Inhibitory Concentration (Table 3, EPI Conc. 0 μg/ml): 4 µg/mL
Levofloxacin MIC Against P. aeruginosa PAM1001 in Presence of Efflux Pump Inhibitor (EPI), Minimum Inhibitory Concentration (Table 3, EPI Conc. 0.625 μg/ml): 4 µg/mL
Levofloxacin MIC Against P. aeruginosa PAM1001 in Presence of Efflux Pump Inhibitor (EPI), Minimum Inhibitory Concentration (Table 3, EPI Conc. 5 μg/ml): 2 µg/mL
Levofloxacin MIC Against P. aeruginosa PAM1001 in Presence of Efflux Pump Inhibitor (EPI), Minimum Inhibitory Concentration (Table 3, EPI Conc. 10 μg/ml): 0.25 µg/mL
Levofloxacin MIC Against P. aeruginosa PAM1001 in Presence of Efflux Pump Inhibitor (EPI), Minimum Inhibitory Concentration (Table 3, EPI Conc. 40 μg/ml): 0.125 µg/mL
Levofloxacin MIC Against P. aeruginosa PAM1001 in Presence of Efflux Pump Inhibitor (EPI), Minimum Inhibitory Concentration (Table 3, EPI Conc. […]): 4 µg/mL
Levofloxacin MIC Against P. aeruginosa PAM1001 in Presence of Efflux Pump Inhibitor (EPI), Minimum Inhibitory Concentration (Table 3, EPI Conc. μg/ml (number not given; column between 10 and 40 μg/ml)): 0.125 µg/mL
Levofloxacin MIC Against P. aeruginosa PAM1001 in Presence of Efflux Pump Inhibitor (EPI), Minimum Inhibitory Concentration (Table 4, EPI Conc. 0 μg/ml): 4 µg/mL
Levofloxacin MIC Against P. aeruginosa PAM1001 in Presence of Efflux Pump Inhibitor (EPI), Minimum Inhibitory Concentration (Table 4, EPI Conc. 0.625 μg/ml): 4 µg/mL
Levofloxacin MIC Against P. aeruginosa PAM1001 in Presence of Efflux Pump Inhibitor (EPI), Minimum Inhibitory Concentration (Table 4, EPI Conc. 5 μg/ml): 2 µg/mL
Levofloxacin MIC Against P. aeruginosa PAM1001 in Presence of Efflux Pump Inhibitor (EPI), Minimum Inhibitory Concentration (Table 4, EPI Conc. 10 μg/ml): 1 µg/mL
Levofloxacin MIC Against P. aeruginosa PAM1001 in Presence of Efflux Pump Inhibitor (EPI), Minimum Inhibitory Concentration (Table 4, EPI Conc. 40 μg/ml): 0.03 µg/mL
Levofloxacin MIC Against P. aeruginosa PAM1001 in Presence of Efflux Pump Inhibitor (EPI), Minimum Inhibitory Concentration (Table 4, EPI Conc. […]): 4 µg/mL
Levofloxacin MIC Against P. aeruginosa PAM1001 in Presence of Efflux Pump Inhibitor (EPI), Minimum Inhibitory Concentration (Table 4, EPI Conc. μg/ml (number not given; column between 10 and 40 μg/ml)): 0.125 µg/mL

C[C@H]1COc2c(N3CCN(C)CC3)c(F)cc3c(=O)c(C(=O)O)cn1c23 [levofloxacin, reference compound]
MIC (Pseudomonas aeruginosa, PAM1001, read-out: MIC of levofloxacin against P. aeruginosa PAM1001): 4 µg/mL

— patent publication US6114310A, “Efflux pump inhibitors” (priority 1998, dated 2000)
